Bounds are passed on as bounds.

The subject of data set [1] is A2780 cells. In words: Mitochondrial ROS (MitoSOX, flow cytometry), A2780. It is filed as cell-based, human. As to the method:
Monitoring mitochondrial ROS (mROS)
A2780 cells were seeded in RPMI 1640 medium containing 5% FBS, 1% L-glutamine and 1% penicillin/streptomycin in a 96-well microtiter plate (total volume 0.1 mL) at a density of 250 cells/µL one day before the experiment. On the day of the experiment, the cells were washed with DPBS buffer and a fresh portion of RPMI 1640 medium containing 5% FBS, 1% L-glutamine and 1% penicillin/streptomycin (100 µL) was added followed by addition of compounds (1 μL of stock solutions in DMSO, final concentration of the prodrugs was 5, 10 μM and 30 μM) or carrier only (DMSO, 1 µL, final concentration 1 %, v/v) and incubation for 1 or 2 h in the dark chamber filled with CO 2 (5%) at 37 °C. After that, the cells were washed twice with DPBS buffer and the medium was replaced with HBSS (Hanks' Balanced Salt solution, 50 μL) containing MitoSOX (Red Mitochondrial Superoxide Indicator, Thermo-Fisher, Catalog number M36008, final concentration 5 µM obtained by adding 0.5 µ L of the 0.5 mM stock solution of MitoSOX in DMSO to the HBSS ) […]
(1 picture or pasted object on this page, not shown here) […]
and the cells were incubated in the dark chamber filled with CO2 (5%) at 37 °C for 20 min.
Next, the cells were detached from the culture dish using trypsin/EDTA (0.025%/0.01%, v/v, 50 µL). The cells were re-suspended in RPMI 1640 medium containing 5% FBS, 1% L-glutamine and 1% penicillin/streptomycin (100 µL). Finally, the fluorescence of live cells (λex = 488 nm, λem = 578 nm) in the suspensions was determined by using flow cytometry
In general terms: Flow cytometry measures light scatter and fluorescence of single cells or particles in a stream.

Data set [2] can be described thus: n-octanol/water partition coefficient (logP) by RP-TLC. It is filed as physicochemical. The note with it: for logP (Hydrolyzed Prodrug): n-octanol/water partition coefficient of the hydrolyzed boronic acid (_BA) form of the prodrug named; for logP (Prodrug): n-octanol/water partition coefficient of the intact prodrug (or control 2c_c), RP-TLC, MOPS pH 7.4. As for the experimental part: Determination of n-octanol/water partition coefficients (LogP) […]
mixture of dichloromethane/CH3OH at proper concentrations. Commercially available […]
7.4) (6/4, v/v) was used. The solvent migration distance was around 4.5 cm. The plates […]
and its distance was manually measured. All measurements were done in at least triplicate and average values were used in further calculations. All experiments were performed at ambient temperature (22 ± 2 °C). […]

The nature of data set [3]: Solubility in RPMI 1640 medium, precipitation seen by bright field optical microscopy. The note with it: DMSO 1%; for Solubility: 48 h incubation in RPMI 1640, FBS 5%, first signs of precipitation; for first signs of precipitation: immediately after dilution in RPMI 1640, FBS 5%. As for the experimental part: The latter medium was selected, since we used it for the cellular assays. […] Then we monitored the formation of (not detectable in the previous experiment) aggregated species in prodrug solutions that appeared transparent (concentrations < 50 µM) by using dynamic light scattering. […]
Solubility of drugs in aqueous buffers
Observing prodrug precipitation by using bright field optical microscopy […]
glutamine (1 %), and penicillin/streptomycin (1 %) was filled into 96-well microtiter plates (100 µL for each well) and compounds in DMSO stock solution (1 µL) were added. Each well was monitored by using bright field optical microscopy both immediately after […]

Data set [4] in a line: Prodrug-induced generation of ROS in cell free settings (DCFH/H2O2). The settings on record: for ROS Release Efficacy: relative acceleration of the rate of DCFH fluorescence increase with H2O2, pH 7.4, FeSO4 = 1.0. An excerpt: As previously reported, the NAAF-prodrugs react with ROS like H2O2, first leading to the cleavage of the B-C-bond with the formation of the phenol derivatives (product 2c-1, Figure S49, SI). The latter compounds exist in equilibrium with the corresponding phenolates. The phenolates undergo the spontaneous 1,6-elimination of para-quinone methide (QM) followed by the release of CO2 with the formation of the N-alkylaminoferrocene NAAF drugs (product 2c-2, Figure S46, SI). By using electrospray ionization mass spectrometry (ESI–MS), we confirmed for one representative prodrug 2c that it reacts with H2O2 in cell free settings according to this common mechanism (ESI-MS, Figures S46–S48, SI). The NAAF is further oxidized by H2O2 or molecular oxygen with the generation of drug NAAF^+ and highly toxic HO• or/and O2^•−. Finally, the NAAF^+ is reduced by glutathione (GSH), thereby closing the catalytic cycle, in which the NAAF acts as a catalyst. We evaluated the formation of HO• or/and O2^•− by using 2′,7′-dichlorodihydrofluorescein (DCFH) as a probe (Table 1, Figure S49, SI). This probe is oxidized to the fluorescent product 2′,7′-dichlorofluorescein (DCF) in the presence of HO• or/and O2^•−. […] The lower activity of 2c and 2d correlates with their higher lipophilicity and their correspondingly higher propensity to form aggregates in aqueous solution (Figure S45, SI).
Prodrug-induced generation of ROS in cell free settings
2',7'-Dichlorodihydrofluorescein diacetate (DCFH-DA, 4.9 mg) was dissolved in DMF (100 μL) and mixed with aqueous NaOH (0.1 M, 900 μL). The resulting mixture was incubated for 30 min at 22 °C in the dark to obtain a stock solution of 2',7'-dichlorodihydrofluorescein (DCFH, 10 mM). Next, DCFH (1 µL ) was added to the solution containing MOPS buf fer (100 mM, pH 7.4), N,N,N'N' -e thylenediaminetetraacetic acid (EDTA , 10 mM) and glutathione (GSH , 5 mM) (1 mL, final concentration of DCFH 10 μM). The reaction mixture was heated to 37 °C and H2O2 (1 µL, final concentration 10 mM) was added. The reaction was monitored by fluorescence spectroscopy: λex = 501 nm, λem = 523 nm. After around 5 min, prodrugs (1 mM in DMF, 10 μL) or positive control FeSO4 (1 mM in water, 10 μL) were added, and the fluorescence monitoring was continued until the fluorescence signal growth was stalled after approximately 100 to 300 min. A representative kinetics of ROS […]
The data are presented in Table 1 as relative acceleration of the rate of the fluorescence increase, where the rate of the fluorescence increase obtained in the presence of positive control FeSO4 was set […]
y = a time + b (a = (dF/dt) , min-1)
Figure S49. Increase of the fluorescence intensity (λex = 501 nm, λem = 523 nm) upon oxidation of DCFH by H2O2 in the presence of FeSO4. Experimental details are provided in the description above. The time point of the FeSO4 addition is indicated with a black […]
(also on this page, place not known: ° C µL) buffer N,N,N'N'-ethylenediaminetetraacetic (EDTA, (GSH, ° C FeSO 4 (λ ex λ em Fluorescence (a.u.) (dF/dt)0, min -1 Addition of)
(1 picture or pasted object on this page, not shown here)

Data set [5] has as its system A2780 cells. Kind of data set: Cell viability, MTT assay, A2780. Format: cell-based, human. As for the experimental part:
Determination of viability of cells in the presence of prodrugs and controls A2780 and BL-2 cells The medium was removed, and the cells were washed two times with DPBS, trypsinated, and resuspended in RPMI 1640 medium (A2780) supplemented with 5% FBS (for 24 h and 48 h assay) or 10% FBS (for 96 h assay) , 1% L-glutamine, and 1% penicillin/streptomycin.
A2780 cells: This suspension was spread in the wells of a 96 -well microtiter plate (25000 cells for A2780 per well per 100 μL) and left standing at 37 °C in the chamber filled with CO2 (5%) for overnight. Stock solutions of prodrugs of different concentra tions (1 μL, solvent dmso, final concentrations in wells were 2, 5, 10, 30, 50 μM) were added to the wells and incubated for specific periods of time. Four experiments were conducted for each concentration of the prodrug. Finally, 3-(4,5-dimethylthiazol-2-yl)-2,5-diphenyltetrazolium bromide (MTT, 20 μL of the solution prepared by dissolving MTT (5 mg) in DPBS buffer (1 mL)) was added to each well, incubated for 3 h, treated with sodium dodecyl sulfate (SDS) solution (90 μL, 10% solution in 0.01 M aqueous HC l), and incubated overnight. Afterward, the intensity of the absorbance at 590 nm was measured.
MTT is converted in live cells to blue dye with the absorbance maximum λ max at 590 nm.
The absorbance at 690 nm was taken as a baseline value. The baseline corrected absorbance at 590 nm (A(590 nm) − A(690 nm)) was applied to calculate the relative number of viable cells. IC50 values were determined by fitting the experimental data expressing the number of viable cells (%, Y-axis) versus drug concentration (μM, X-axis) with a line curve and the X-axis value corresponding to 50% viability was considered as IC50 value according to the line curve (Figure S50, Table S2). […]
On the technique in general: Formazan colour is commonly taken as a measure of viable cells.

Data set [6] relates to chronic lymphocytic leukemia (CLL) cells. In words: Viability of primary CLL cells (CellTiter Glo). Format: cell-based, human. The note with it: viability of CLL vs MNC, 48 h; for 2c at 3.3 and 10 µM. From the text: Determination of viability of primary cancer (CLL) and normal (MNC) cells in the […]
Clinical samples from chronic lymphocytic leukemia (CLL) patients (N=6, CLL cells) and healthy donors (N=6; peripheral blood mononuclear cells, MNCs) were collected at the University Hospital Heidelberg, Germany. Informed consent was obtained in accordance with the Declaration of Helsinki. Sample collection and analysis was approved by the ethics committee of the University of Heidelberg (S-254/2016). Blood was separated by a Ficoll gradient (GE Healthcarey), and cells were cryopreserved. Drug sensitivity screening was performed in 384-well format (Greiner Bio One) with 10 different prodrug […]
4x10^4 cells per well. Cells were cultured in RPMI-1640 (Invitrogen) supplemented with penicillin/streptomycin (Invitrogen), L-glutamine (Invitrogen) and 10% pooled and heat inactivated AB-type human serum (Sigma-Aldrich). Cell viability was assessed by quantification of ATP (CellTiter Glo®, Promega) 48 hours after drug application.
Luminescence was measured on a Tecan Infinite F200 Microplate Reader. Viability was calculated as % of solvent (DMSO) treated control. Representative plots of cell viability
Background: ATP-based viability assays read luminescence as a measure of living cells.

As for `CC1(C)OB(c2ccc(COC(=O)N[c-]3cccc3)cc2)OC1(C)C.[Fe+2].c1cc[cH-]c1` [5a], the “mitochondrial ROS (mROS) vs non-treated cells” value in the data set with A2780 cells [1] is on record as “substantially weaker”.

The Solubility is how much of the substance goes into solution per volume. Read a high Solubility as a readily soluble substance. The cell viability is a per cent measure of how many cells are alive, often set against a control. High values mean less harm to the cells, low ones more harm to the cells. In general, IC50 refers to the concentration that gives 50% inhibition. On to `CC1(C)OB(c2ccc(COC(=O)N(Cc3cn(Cc4ccc(Cn5cc(CCc6ccccc6)nn5)cc4)nn3)[c-]3cccc3)cc2)OC1(C)C.[Fe+2].c1cc[cH-]c1` [2d], for which the “logP (Hydrolyzed Prodrug)” value in data set [2] is listed as 3.42 ± 0.14. In data set [2], the “logP (Prodrug)” value amounted to 5.56 ± 0.14. Moreover, the Solubility in data set [3] turned out to be 30 µM. The “first signs of precipitation” value in data set [3] worked out at 30 µM. In addition, the “ROS-generating activity, fold lower than that of 2a and 2b” value in data set [4] (cell free DCFH assay) is listed as ~ 2 fold. Moreover, in data set [4], the “ROS Release Efficacy” value is reported as 0.37 ± 0.13. Further, the “cell viability at which the effect is saturated” value in the data set on A2780 cells [5] (A2780, 24 h) came out at 70%; in the data set on A2780 cells [5] (A2780, 48 h) it was 50%; with A2780 cells [5] (A2780, 96 h) it was 43%. Also, the IC50 with A2780 cells [5] (A2780, 24 h incubation) is more than 30 µM; in the data set with A2780 cells [5] (A2780, 48 h incubation), more than 30 µM; with A2780 cells [5] (A2780, 96 h incubation) it was 8.3 ± 1.5 µM. For the same compound, the “cancer cell specificity, primary CLL cells vs MNCs” value (shortened to “cancer cell specificity … vs MNCs”) in data set [6] is given as “some specificity towards primary CLL cells”.

For the compound `CC1(C)OB(c2ccc(COC(=O)N(Cc3cn(CCc4ccccc4)nn3)[c-]3cccc3)cc2)OC1(C)C.[Fe+2].c1cc[cH-]c1` [2b], in data set [2], the “logP (Hydrolyzed Prodrug)” value was determined as 3.10 ± 0.12 and the “logP (Prodrug)” value came out at 5.37 ± 0.10. Moreover, in data set [3], the Solubility came to 100 µM and the “first signs of precipitation” value turned out to be 50 µM. For the same compound, the “ROS Release Efficacy” value in data set [4] was found to be 0.76 ± 0.19. Also, the IC50 with A2780 cells [5] (A2780, 24 h incubation) came to 24.7 ± 0.6 µM. In the data set with A2780 cells [5] (A2780, 48 h incubation), this compound had a 50% inhibitory concentration (IC50) of 18.5 ± 1.3 µM. The same compound registered an IC50 in the data set with A2780 cells [5] (A2780, 96 h incubation) of 12 ± 3 µM. In data set [6], the “cancer cell specificity … vs MNCs” value is given as “some specificity towards primary CLL cells”.

For the compound `CC1(C)OB(c2ccc(COC(=O)N(Cc3cn(Cc4ccccc4)nn3)[c-]3cccc3)cc2)OC1(C)C.[Fe+2].c1cc[cH-]c1` [2a], in data set [2], the “logP (Hydrolyzed Prodrug)” value amounted to 2.92 ± 0.14 and the “logP (Prodrug)” value stood at 5.27 ± 0.10. Moreover, in data set [3], the Solubility worked out at 100 µM and the “first signs of precipitation” value amounted to 50 µM. Moreover, the “ROS Release Efficacy” value in data set [4] amounted to 0.74 ± 0.19. For the same compound, the half-maximal inhibitory concentration (IC50) with A2780 cells [5] (A2780, 24 h incubation) stood at 23.7 ± 0.6 µM. The same compound displayed an IC50 with A2780 cells [5] (A2780, 48 h incubation) of 16.2 ± 1.8 µM. The compound further showed an IC50 in the data set with A2780 cells [5] (A2780, 96 h incubation) of 10.5 ± 0.7 µM. Also, the “cancer cell specificity … vs MNCs” value in data set [6] is “some specificity towards primary CLL cells”.

For the origin of these results see paper PMC8750417, “Intracellular Amplifiers of Reactive Oxygen Species Affecting Mitochondria as Radiosensitizers” (Cancers, 2021).
